Assay results reported in patent publication US11753445B2, “Therapeutic peptides” (COHBAR, INC., priority 2016, dated 2023).
Peptide text beside a SMILES is read from it.

Tested on: 3T3-L1 Adipocytes
Test: Free fatty acid levels in cultured mouse 3T3-L1 adipocytes, isoproterenol stimulated (Example 2)
Format: cell-based
Settings: test peptides 25 μM; isoproterenol 1 nM
Method: Mouse 3T3-L1 cells were seeded at a density between 1,000-20,000 cells per well on 96-well, 48-well, or 24-well plates in Pre-adipocyte Medium (Zen-Bio, Durham, N.C.) and grown to confluence at 37° C. in a humidified atmosphere of 5% CO2/95% air. Two days after confluence, cells were placed in Adipocyte Differentiation Medium (Zen-Bio, Durham, N.C.) and cultured for three additional days at 37° C. in a humidified atmosphere of 5% CO2/95% air. The culture media was then replaced with Adipocyte Maintenance Medium (Zen-Bio) and the cells were maintained for an additional 9-14 days at 37° C. in a humidified atmosphere of 5% CO2/95% air with partial medium replacement every other day. Following 12-17 days of differentiation, test peptides were added at a final concentration of 25 μM and incubated for 18-20 hours in Adipocyte Maintenance Medium at 37° C. in a humidified atmosphere of 5% CO2/95%. After 18-20 hours, the media was exchanged with fresh Adipocyte Maintenance Medium containing test peptides and incubated for 1 h at 37° C. in a humidified atmosphere of 5% CO2/95%. After 1 h media was exchanged with Assay Buffer (Zen-Bio) containing isoproterenol (1 nM) (added to all samples except untreated controls) and the test peptides. Cells were incubated for a further 3 hours at 37° C. in a humidified atmosphere of 5% CO2/95%. Free fatty acid concentrations in the media were determined using a Free Fatty Acid Assay Kit (Zen-Bio) according to the manufacturer's instructions using a plate reader (540 nm).
Absorbance values were corrected for untreated background and expressed relative to isoproterenol treated cells. Treatment with isoproterenol (1 nM) alone was used as the free fatty acid level stimulatory control. The relative standard deviation of the isoproterenol control was <10%. […] Free fatty acid levels for insulin (100 nM) treatment were <5% of the isoproterenol control value.

CC[C@H](C)[C@H](NC(=O)[C@H](Cc1ccc(O)cc1)NC(=O)CNC(=O)[C@H](CCSC)NC(=O)[C@@H](C)NC(=O)[C@H](CCC(N)=O)NC(=O)[C@H](Cc1c[nH]c2ccccc12)NC(=O)[C@H](CCCNC(=N)N)NC(=O)[C@@H](N)CCSC)C(=O)N[C@@H](Cc1ccccc1)C(=O)N[C@@H](Cc1ccc(O)cc1)C(=O)N1CCC[C@H]1C(=O)N[C@@H](CCCNC(=N)N)C(=O)N[C@@H](CCCCN)C(=O)N[C@@H](CC(C)C)C(=O)N[C@@H](CCCNC(=N)N)C(=O)O [compound 140] (HELM PEPTIDE1{M.R.W.Q.[dA].M.G.Y.I.F.Y.P.R.K.L.R}$$$$V2.0)
Free Fatty Acid Levels in 3T3-L1 Adipocytes Expressed as a Percent of Isoproterenol Control: Percent of Control Value: 60.8%

CC[C@H](C)[C@H](NC(=O)[C@H](Cc1ccc(O)cc1)NC(=O)CNC(=O)[C@@H](C)NC(=O)[C@H](CCC(=O)O)NC(=O)[C@H](CCC(N)=O)NC(=O)[C@H](Cc1c[nH]c2ccccc12)NC(=O)[C@H](CCCNC(=N)N)NC(=O)[C@@H](N)CCSC)C(=O)N[C@@H](Cc1ccccc1)C(=O)N[C@@H](Cc1ccc(O)cc1)C(=O)N1CCC[C@H]1C(=O)N[C@@H](CCCNC(=N)N)C(=O)N[C@@H](CCCCN)C(=O)N[C@@H](CC(C)C)C(=O)N[C@@H](CCCNC(=N)N)C(=O)O [compound 141] (HELM PEPTIDE1{M.R.W.Q.E.[dA].G.Y.I.F.Y.P.R.K.L.R}$$$$V2.0)
Free Fatty Acid Levels in 3T3-L1 Adipocytes Expressed as a Percent of Isoproterenol Control: Percent of Control Value: 56.9%

CC[C@H](C)[C@H](NC(=O)[C@H](Cc1ccc(O)cc1)NC(=O)[C@@H](C)NC(=O)[C@H](CCSC)NC(=O)[C@H](CCC(=O)O)NC(=O)[C@H](CCC(N)=O)NC(=O)[C@H](Cc1c[nH]c2ccccc12)NC(=O)[C@H](CCCNC(=N)N)NC(=O)[C@@H](N)CCSC)C(=O)N[C@@H](Cc1ccccc1)C(=O)N[C@@H](Cc1ccc(O)cc1)C(=O)N1CCC[C@H]1C(=O)N[C@@H](CCCNC(=N)N)C(=O)N[C@@H](CCCCN)C(=O)N[C@@H](CC(C)C)C(=O)N[C@@H](CCCNC(=N)N)C(=O)O [compound 142] (HELM PEPTIDE1{M.R.W.Q.E.M.[dA].Y.I.F.Y.P.R.K.L.R}$$$$V2.0)
Free Fatty Acid Levels in 3T3-L1 Adipocytes Expressed as a Percent of Isoproterenol Control: Percent of Control Value: 31.9%

CC[C@H](C)[C@H](NC(=O)[C@@H](C)NC(=O)CNC(=O)[C@H](CCSC)NC(=O)[C@H](CCC(=O)O)NC(=O)[C@H](CCC(N)=O)NC(=O)[C@H](Cc1c[nH]c2ccccc12)NC(=O)[C@H](CCCNC(=N)N)NC(=O)[C@@H](N)CCSC)C(=O)N[C@@H](Cc1ccccc1)C(=O)N[C@@H](Cc1ccc(O)cc1)C(=O)N1CCC[C@H]1C(=O)N[C@@H](CCCNC(=N)N)C(=O)N[C@@H](CCCCN)C(=O)N[C@@H](CC(C)C)C(=O)N[C@@H](CCCNC(=N)N)C(=O)O [compound 143] (HELM PEPTIDE1{M.R.W.Q.E.M.G.[dA].I.F.Y.P.R.K.L.R}$$$$V2.0)
Free Fatty Acid Levels in 3T3-L1 Adipocytes Expressed as a Percent of Isoproterenol Control: Percent of Control Value: 64.5%

CSCC[C@H](NC(=O)[C@H](CCC(=O)O)NC(=O)[C@H](CCC(N)=O)NC(=O)[C@H](Cc1c[nH]c2ccccc12)NC(=O)[C@H](CCCNC(=N)N)NC(=O)[C@@H](N)CCSC)C(=O)NCC(=O)N[C@@H](Cc1ccc(O)cc1)C(=O)N[C@H](C)C(=O)N[C@@H](Cc1ccccc1)C(=O)N[C@@H](Cc1ccc(O)cc1)C(=O)N1CCC[C@H]1C(=O)N[C@@H](CCCNC(=N)N)C(=O)N[C@@H](CCCCN)C(=O)N[C@@H](CC(C)C)C(=O)N[C@@H](CCCNC(=N)N)C(=O)O [compound 144] (HELM PEPTIDE1{M.R.W.Q.E.M.G.Y.[dA].F.Y.P.R.K.L.R}$$$$V2.0)
Free Fatty Acid Levels in 3T3-L1 Adipocytes Expressed as a Percent of Isoproterenol Control: Percent of Control Value: 57.0%

CC[C@H](C)[C@H](NC(=O)[C@H](Cc1ccc(O)cc1)NC(=O)CNC(=O)[C@H](CCSC)NC(=O)[C@H](CCC(=O)O)NC(=O)[C@H](CCC(N)=O)NC(=O)[C@H](Cc1c[nH]c2ccccc12)NC(=O)[C@H](CCCNC(=N)N)NC(=O)[C@@H](N)CCSC)C(=O)N[C@H](C)C(=O)N[C@@H](Cc1ccc(O)cc1)C(=O)N1CCC[C@H]1C(=O)N[C@@H](CCCNC(=N)N)C(=O)N[C@@H](CCCCN)C(=O)N[C@@H](CC(C)C)C(=O)N[C@@H](CCCNC(=N)N)C(=O)O [compound 145] (HELM PEPTIDE1{M.R.W.Q.E.M.G.Y.I.[dA].Y.P.R.K.L.R}$$$$V2.0)
Free Fatty Acid Levels in 3T3-L1 Adipocytes Expressed as a Percent of Isoproterenol Control: Percent of Control Value: 50.2%

CC[C@H](C)[C@H](NC(=O)[C@H](Cc1ccc(O)cc1)NC(=O)CNC(=O)[C@H](CCSC)NC(=O)[C@H](CCC(=O)O)NC(=O)[C@H](CCC(N)=O)NC(=O)[C@H](Cc1c[nH]c2ccccc12)NC(=O)[C@H](CCCNC(=N)N)NC(=O)[C@@H](N)CCSC)C(=O)N[C@@H](Cc1ccccc1)C(=O)N[C@H](C)C(=O)N1CCC[C@H]1C(=O)N[C@@H](CCCNC(=N)N)C(=O)N[C@@H](CCCCN)C(=O)N[C@@H](CC(C)C)C(=O)N[C@@H](CCCNC(=N)N)C(=O)O [compound 146] (HELM PEPTIDE1{M.R.W.Q.E.M.G.Y.I.F.[dA].P.R.K.L.R}$$$$V2.0)
Free Fatty Acid Levels in 3T3-L1 Adipocytes Expressed as a Percent of Isoproterenol Control: Percent of Control Value: 55.9%

CC[C@H](C)[C@H](NC(=O)[C@H](Cc1ccc(O)cc1)NC(=O)CNC(=O)[C@H](CCSC)NC(=O)[C@H](CCC(=O)O)NC(=O)[C@H](CCC(N)=O)NC(=O)[C@H](Cc1c[nH]c2ccccc12)NC(=O)[C@H](CCCNC(=N)N)NC(=O)[C@@H](N)CCSC)C(=O)N[C@@H](Cc1ccccc1)C(=O)N[C@@H](Cc1ccc(O)cc1)C(=O)N[C@H](C)C(=O)N[C@@H](CCCNC(=N)N)C(=O)N[C@@H](CCCCN)C(=O)N[C@@H](CC(C)C)C(=O)N[C@@H](CCCNC(=N)N)C(=O)O [compound 147] (HELM PEPTIDE1{M.R.W.Q.E.M.G.Y.I.F.Y.[dA].R.K.L.R}$$$$V2.0)
Free Fatty Acid Levels in 3T3-L1 Adipocytes Expressed as a Percent of Isoproterenol Control: Percent of Control Value: 60.9%

CC[C@H](C)[C@H](NC(=O)[C@H](Cc1ccc(O)cc1)NC(=O)CNC(=O)[C@H](CCSC)NC(=O)[C@H](CCC(=O)O)NC(=O)[C@H](CCC(N)=O)NC(=O)[C@H](Cc1c[nH]c2ccccc12)NC(=O)[C@H](CCCNC(=N)N)NC(=O)[C@@H](N)CCSC)C(=O)N[C@@H](Cc1ccccc1)C(=O)N[C@@H](Cc1ccc(O)cc1)C(=O)N1CCC[C@H]1C(=O)N[C@H](C)C(=O)N[C@@H](CCCCN)C(=O)N[C@@H](CC(C)C)C(=O)N[C@@H](CCCNC(=N)N)C(=O)O [compound 148] (HELM PEPTIDE1{M.R.W.Q.E.M.G.Y.I.F.Y.P.[dA].K.L.R}$$$$V2.0)
Free Fatty Acid Levels in 3T3-L1 Adipocytes Expressed as a Percent of Isoproterenol Control: Percent of Control Value: 25.0%

CC[C@H](C)[C@H](NC(=O)[C@H](Cc1ccc(O)cc1)NC(=O)CNC(=O)[C@H](CCSC)NC(=O)[C@H](CCC(=O)O)NC(=O)[C@H](CCC(N)=O)NC(=O)[C@H](Cc1c[nH]c2ccccc12)NC(=O)[C@H](CCCNC(=N)N)NC(=O)[C@@H](N)CCSC)C(=O)N[C@@H](Cc1ccccc1)C(=O)N[C@@H](Cc1ccc(O)cc1)C(=O)N1CCC[C@H]1C(=O)N[C@@H](CCCNC(=N)N)C(=O)N[C@@H](CCCCN)C(=O)N[C@H](C)C(=O)N[C@@H](CCCNC(=N)N)C(=O)O [compound 150] (HELM PEPTIDE1{M.R.W.Q.E.M.G.Y.I.F.Y.P.R.K.[dA].R}$$$$V2.0)
Free Fatty Acid Levels in 3T3-L1 Adipocytes Expressed as a Percent of Isoproterenol Control: Percent of Control Value: 53.9%

CC[C@H](C)[C@H](NC(=O)[C@H](Cc1ccc(O)cc1)NC(=O)CNC(=O)[C@H](CCSC)NC(=O)[C@H](CCC(=O)O)NC(=O)[C@H](CCC(N)=O)NC(=O)[C@H](Cc1c[nH]c2ccccc12)NC(=O)[C@H](CCCNC(=N)N)NC(=O)[C@@H](N)CCSC)C(=O)N[C@@H](Cc1ccccc1)C(=O)N[C@@H](Cc1ccc(O)cc1)C(=O)N1CCC[C@H]1C(=O)N[C@@H](CCCNC(=N)N)C(=O)N[C@@H](CCCCN)C(=O)N[C@@H](CC(C)C)C(=O)N[C@H](C)C(=O)O [compound 151] (HELM PEPTIDE1{M.R.W.Q.E.M.G.Y.I.F.Y.P.R.K.L.[dA]}$$$$V2.0)
Free Fatty Acid Levels in 3T3-L1 Adipocytes Expressed as a Percent of Isoproterenol Control: Percent of Control Value: 47.9%

CC[C@H](C)[C@H](NC(=O)[C@H](Cc1ccc(O)cc1)NC(=O)CNC(=O)[C@H](CCSC)NC(=O)[C@H](CCC(=O)O)NC(=O)[C@H](CCC(N)=O)NC(=O)[C@H](Cc1c[nH]c2ccccc12)NC(=O)[C@H](CCCNC(=N)N)NC(=O)[C@@H](C)NC(C)=O)C(=O)N[C@@H](Cc1ccccc1)C(=O)N[C@@H](Cc1ccc(O)cc1)C(=O)N1CCC[C@H]1C(=O)N[C@@H](CCCNC(=N)N)C(=O)N[C@@H](CCCCN)C(=O)N[C@@H](CC(C)C)C(=O)N[C@@H](CCCNC(=N)N)C(N)=O [compound 152] (HELM PEPTIDE1{[ac].[dA].R.W.Q.E.M.G.Y.I.F.Y.P.R.K.L.R.[am]}$$$$V2.0)
Free Fatty Acid Levels in 3T3-L1 Adipocytes Expressed as a Percent of Isoproterenol Control: Percent of Control Value: 81.9%

CC[C@H](C)[C@H](NC(=O)[C@H](Cc1ccc(O)cc1)NC(=O)CNC(=O)[C@H](CCSC)NC(=O)[C@H](CCC(=O)O)NC(=O)[C@H](CCC(N)=O)NC(=O)[C@H](Cc1c[nH]c2ccccc12)NC(=O)[C@@H](C)NC(=O)[C@H](CCSC)NC(C)=O)C(=O)N[C@@H](Cc1ccccc1)C(=O)N[C@@H](Cc1ccc(O)cc1)C(=O)N1CCC[C@H]1C(=O)N[C@@H](CCCNC(=N)N)C(=O)N[C@@H](CCCCN)C(=O)N[C@@H](CC(C)C)C(=O)N[C@@H](CCCNC(=N)N)C(N)=O [compound 153] (HELM PEPTIDE1{[ac].M.[dA].W.Q.E.M.G.Y.I.F.Y.P.R.K.L.R.[am]}$$$$V2.0)
Free Fatty Acid Levels in 3T3-L1 Adipocytes Expressed as a Percent of Isoproterenol Control: Percent of Control Value: 93.1%
